The target in test [1] is rat P2X7 (Rattus norvegicus (Rat), UniProt Q64663). Briefly: Rat P2X7 functional assay (Ca2+ influx, Fluo-4, FDSS). Format: cell-based. Conditions: HEK293 cells stably expressing rat P2X7; BzATP final 10 microM; 7-point dose-response; read-out: Antagonistic activities with respect to the rat P2X7 receptor (IC50). In outline: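 HEK293 cells stably expressing rat P2X7 (5,000/well, plated 24 h before) loaded with Fluo-4; compounds preincubated 10 min at room temperature, then Ca2+ rise after 10 microM BzATP (final) read on FDSS (480/540 nm). IC50 from 7-point curves, duplicate wells.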

Test [2] addresses human P2X7 (Homo sapiens (Human), UniProt Q99572). Briefly: Human P2X7 functional assay (Ca2+ influx, Fluo-4, FDSS). Format: cell-based. Conditions: antagonistic activity with respect to the human P2X7 receptor; BzATP final concentration 80 microM. In outline: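 HEK293 cells stably expressing C-terminally FLAG-tagged human P2X7, loaded with Fluo-4. Compounds were preincubated for 10 min at room temperature, then 80 μM BzATP (final) was added and Ca2+ fluorescence read at 540 nm (480 nm excitation) by FDSS. IC50 values come from 7-point curves, duplicate wells.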

The values below come from patent US11077100B2, “Tetrahydroquinoline derivatives as P2X7 receptor antagonists” (RaQualia Pharma Inc., priority 2017, dated 2021).

One may read the IC50 as the concentration needed to halve the response being measured.

Some results are limits rather than exact numbers.

Chain of rat P2X7 (Q64663 whole entry): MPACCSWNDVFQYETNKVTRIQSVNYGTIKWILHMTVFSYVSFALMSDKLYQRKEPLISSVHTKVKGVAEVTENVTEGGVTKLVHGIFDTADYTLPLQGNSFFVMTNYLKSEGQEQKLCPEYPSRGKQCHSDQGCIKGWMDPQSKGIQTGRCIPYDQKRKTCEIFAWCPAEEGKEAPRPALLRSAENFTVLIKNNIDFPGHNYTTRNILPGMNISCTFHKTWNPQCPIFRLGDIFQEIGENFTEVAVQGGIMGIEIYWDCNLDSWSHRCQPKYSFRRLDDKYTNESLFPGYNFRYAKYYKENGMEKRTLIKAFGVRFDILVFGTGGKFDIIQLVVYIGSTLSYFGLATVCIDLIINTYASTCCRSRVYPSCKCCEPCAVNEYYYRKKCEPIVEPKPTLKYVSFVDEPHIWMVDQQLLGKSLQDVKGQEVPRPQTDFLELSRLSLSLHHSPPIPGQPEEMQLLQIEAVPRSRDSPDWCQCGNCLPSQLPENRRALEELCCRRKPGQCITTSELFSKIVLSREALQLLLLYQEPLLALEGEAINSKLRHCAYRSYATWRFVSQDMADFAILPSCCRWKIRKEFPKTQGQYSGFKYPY
Chain of human P2X7 (Q99572 whole entry): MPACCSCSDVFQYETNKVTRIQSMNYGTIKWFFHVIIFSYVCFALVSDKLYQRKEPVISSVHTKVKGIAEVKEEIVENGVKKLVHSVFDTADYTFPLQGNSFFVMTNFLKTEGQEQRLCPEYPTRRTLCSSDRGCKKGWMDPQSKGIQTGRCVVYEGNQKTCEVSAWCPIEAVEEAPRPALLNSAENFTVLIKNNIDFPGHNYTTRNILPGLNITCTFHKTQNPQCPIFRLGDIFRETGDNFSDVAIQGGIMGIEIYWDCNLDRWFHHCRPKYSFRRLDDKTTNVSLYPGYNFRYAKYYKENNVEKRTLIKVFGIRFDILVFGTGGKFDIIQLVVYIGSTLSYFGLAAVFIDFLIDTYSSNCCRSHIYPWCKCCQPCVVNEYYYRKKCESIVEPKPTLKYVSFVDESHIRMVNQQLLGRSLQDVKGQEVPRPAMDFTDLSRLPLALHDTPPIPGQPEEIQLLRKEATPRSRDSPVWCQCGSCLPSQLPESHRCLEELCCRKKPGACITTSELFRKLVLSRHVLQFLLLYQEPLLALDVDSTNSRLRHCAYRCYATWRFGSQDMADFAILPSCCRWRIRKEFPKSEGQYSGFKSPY

As for `O=C(NCc1ccc(F)cc1Cl)[C@]1(F)CC[C@](O)(CO)c2ncccc21` [Example 307, (5S,8R)-N-(2-chloro-4-fluorobenzyl)-5-fluoro-8-hydroxy-8-(hydroxymethyl)-5,6,7,8-tetrahydroquinoline-5-carboxamide], the IC50 in test [1] is less than 1 µM; in test [2], 0.301 to 1 µM.
For `O=C(NCc1ccc(F)c(F)c1F)[C@]1(F)CC[C@@](O)(CO)c2ncccc21` [Example 308, (5S,8S)-5-fluoro-8-hydroxy-8-(hydroxymethyl)-N-(2,3,4-trifluorobenzyl)-5,6,7,8-tetrahydroquinoline-5-carboxamide], the half-inhibitory concentration (IC50) in test [1] is less than 1 µM; in test [2], 0.101 to 0.3 µM.
Take `O=C(NCc1ccc(F)c(F)c1F)[C@]1(F)CC[C@](O)(CO)c2ncccc21` [Example 309, (5S,8R)-5-fluoro-8-hydroxy-8-(hydroxymethyl)-N-(2,3,4-trifluorobenzyl)-5,6,7,8-tetrahydroquinoline-5-carboxamide]: the figures for the IC50 in test [1] and in test [2] were less than 1 µM and 1 to 3 µM, respectively.
Taken in the same sequence, the figures for `O=C(NCc1c(F)cc(Cl)cc1Cl)[C@]1(F)CC[C@@](O)(CO)c2ncccc21` [Example 310, (5S,8S)-N-(2,4-dichloro-6-fluorobenzyl)-5-fluoro-8-hydroxy-8-(hydroxymethyl)-5,6,7,8-tetrahydroquinoline-5-carboxamide] were less than 1 µM and less than 0.05 µM.
For `O=C(NCc1c(F)cc(Cl)cc1Cl)[C@]1(F)CC[C@](O)(CO)c2ncccc21` [Example 311, (5S,8R)-N-(2,4-dichloro-6-fluorobenzyl)-5-fluoro-8-hydroxy-8-(hydroxymethyl)-5,6,7,8-tetrahydroquinoline-5-carboxamide], the half-maximal inhibitory concentration (IC50) is less than 1 µM in test [1] and 0.05 to 0.1 µM in test [2].
Taken in the same sequence, the figures for `O=C(NCc1ccc(F)c(F)c1Cl)[C@]1(F)CC[C@@](O)(CO)c2ncccc21` [Example 312, (5S,8S)-N-(2-chloro-3,4-difluorobenzyl)-5-fluoro-8-hydroxy-8-(hydroxymethyl)-5,6,7,8-tetrahydroquinoline-5-carboxamide] were less than 1 µM and less than 0.05 µM.
On to `O=C(NCc1ccc(F)c(F)c1Cl)[C@]1(F)CC[C@](O)(CO)c2ncccc21` [Example 313, (5S,8R)-N-(2-chloro-3,4-difluorobenzyl)-5-fluoro-8-hydroxy-8-(hydroxymethyl)-5,6,7,8-tetrahydroquinoline-5-carboxamide], for which the concentration for half-maximal inhibition (IC50) is less than 1 µM in test [1] and 0.05 to 0.1 µM in test [2].
Taken in the same sequence, the figures for `O=C(NCc1ccc(Cl)cc1F)[C@]1(F)CC[C@@](O)(CO)c2ncccc21` [Example 314, (5S,8S)-N-(4-chloro-2-fluorobenzyl)-5-fluoro-8-hydroxy-8-(hydroxymethyl)-5,6,7,8-tetrahydroquinoline-5-carboxamide] were less than 1 µM and 0.101 to 0.3 µM.
Regarding `O=C(NCc1ccc(Cl)cc1F)[C@]1(F)CC[C@](O)(CO)c2ncccc21` [Example 315, (5S,8R)-N-(4-chloro-2-fluorobenzyl)-5-fluoro-8-hydroxy-8-(hydroxymethyl)-5,6,7,8-tetrahydroquinoline-5-carboxamide], the half-inhibitory concentration (IC50) is less than 1 µM in test [1] and 1 to 3 µM in test [2].
As for `O=C(NCc1c(Cl)cc(Cl)cc1CO)[C@]1(F)CC[C@@](O)(CO)c2ncccc21` [Example 316, (5S,8S)-N-(2,4-dichloro-6-(hydroxymethyl)benzyl)-5-fluoro-8-hydroxy-8-(hydroxymethyl)-5,6,7,8-tetrahydroquinoline-5-carboxamide], the IC50 in test [1] was less than 1 µM; in test [2], less than 0.05 µM.
Taken in the same sequence, the figures for `O=C(NCc1c(Cl)cc(F)cc1CO)[C@]1(F)CC[C@@](O)(CO)c2ncccc21` [Example 317, (5S,8S)-N-(2-chloro-4-fluoro-6-(hydroxymethyl)benzyl)-5-fluoro-8-hydroxy-8-(hydroxymethyl)-5,6,7,8-tetrahydroquinoline-5-carboxamide] were less than 1 µM and less than 0.05 µM.
As to `O=C(NCc1ccc(F)cc1F)[C@]1(F)CC[C@@](O)(CO)c2ncccc21` [Example 318, (5S,8S)-N-(2,4-difluorobenzyl)-5-fluoro-8-hydroxy-8-(hydroxymethyl)-5,6,7,8-tetrahydroquinoline-5-carboxamide], the IC50 is less than 1 µM in test [1] and 0.301 to 1 µM in test [2].
Taken in the same sequence, the figures for `O=C(NCc1ccc(Cl)c(F)c1Cl)[C@]1(F)CC[C@@](O)(CO)c2ncccc21` [Example 319, (5S,8S)-N-(2,4-dichloro-3-fluorobenzyl)-5-fluoro-8-hydroxy-8-(hydroxymethyl)-5,6,7,8-tetrahydroquinoline-5-carboxamide] were less than 1 µM and less than 0.05 µM.
For the compound `O=C(NCc1ccc(F)c(Cl)c1Cl)[C@]1(F)CC[C@@](O)(CO)c2ncccc21` [Example 320, (5S,8S)-N-(2,3-dichloro-4-fluorobenzyl)-5-fluoro-8-hydroxy-8-(hydroxymethyl)-5,6,7,8-tetrahydroquinoline-5-carboxamide], the values for the IC50 in test [1] and in test [2] were less than 1 µM and less than 0.05 µM, respectively.
Taken in the same sequence, the figures for `O=C(NCc1c(F)cc(F)cc1Cl)[C@]1(F)CC[C@@](O)(CO)c2ncccc21` [Example 321, (5S,8S)-N-(2-chloro-4,6-difluorobenzyl)-5-fluoro-8-hydroxy-8-(hydroxymethyl)-5,6,7,8-tetrahydroquinoline-5-carboxamide] were less than 1 µM and less than 0.05 µM.
Take `O=C(NCc1ccc(Cl)c(F)c1F)[C@]1(F)CC[C@@](O)(CO)c2ncccc21` [Example 322, (5S,8S)-N-(4-chloro-2,3-difluorobenzyl)-5-fluoro-8-hydroxy-8-(hydroxymethyl)-5,6,7,8-tetrahydroquinoline-5-carboxamide]: the IC50 in test [1] was less than 1 µM; in test [2] it was 0.101 to 0.3 µM.
Taken in the same sequence, the figures for `O=C(NCc1ccc(F)c(Cl)c1F)[C@]1(F)CC[C@@](O)(CO)c2ncccc21` [Example 323, (5S,8S)-N-(3-chloro-2,4-difluorobenzyl)-5-fluoro-8-hydroxy-8-(hydroxymethyl)-5,6,7,8-tetrahydroquinoline-5-carboxamide] were less than 1 µM and 0.101 to 0.3 µM.
Taken in the same sequence, the figures for `O=C(NCc1c(F)cc(Cl)cc1F)[C@]1(F)CC[C@@](O)(CO)c2ncccc21` [Example 324, (5S,8S)-N-(4-chloro-2,6-difluorobenzyl)-5-fluoro-8-hydroxy-8-(hydroxymethyl)-5,6,7,8-tetrahydroquinoline-5-carboxamide] were less than 1 µM and 0.05 to 0.1 µM.
With `C[C@@H](NC(=O)[C@]1(F)CC[C@@](O)(CO)c2ncccc21)c1ccc(Cl)cc1Cl` [Example 326, (5S,8S)-N-((R)-1-(2,4-dichlorophenyl)ethyl)-5-fluoro-8-hydroxy-8-(hydroxymethyl)-5,6,7,8-tetrahydroquinoline-5-carboxamide], the IC50 in test [1] is less than 1 µM; in test [2], less than 0.05 µM.
In the case of `C[C@@H](NC(=O)[C@]1(F)CC[C@@](O)(CO)c2ncccc21)c1ccc(F)cc1Cl` [Example 327, (5S,8S)-N-((R)-1-(2-chloro-4-fluorophenyl)ethyl)-5-fluoro-8-hydroxy-8-(hydroxymethyl)-5,6,7,8-tetrahydroquinoline-5-carboxamide], the IC50 is less than 1 µM in test [1] and less than 0.05 µM in test [2].
For `C[C@@H](NC(=O)[C@]1(F)CC[C@](O)(CO)c2ncccc21)c1ccc(F)cc1Cl` [Example 328, (5S,8R)-N-((R)-1-(2-chloro-4-fluorophenyl)ethyl)-5-fluoro-8-hydroxy-8-(hydroxymethyl)-5,6,7,8-tetrahydroquinoline-5-carboxamide], the IC50 in test [1] was less than 1 µM; in test [2], 0.101 to 0.3 µM.
Taken in the same sequence, the figures for `O=C(NCc1ncc(Cl)cc1Cl)[C@]1(F)CC[C@@](O)(CO)c2ncccc21` [Example 329, (5S,8S)-N-((3,5-dichloropyridin-2-yl)methyl)-5-fluoro-8-hydroxy-8-(hydroxymethyl)-5,8,7,8-tetrahydroquinoline-5-carboxamide] were less than 1 µM and 0.05 to 0.1 µM.
With `CO[C@H]1CC[C@](F)(C(=O)NCc2c(Cl)cc(Cl)cc2CO)c2cccnc21` [Example 333, (5R,8S)-N-(2,4-dichloro-6-(hydroxymethyl)benzyl)-5-fluoro-8-methoxy-5,6,7,8-tetrahydroquinoline-5-carboxamide], the results for the half-inhibitory concentration (IC50) in test [1] and in test [2] were less than 1 µM and 0.101 to 0.3 µM, respectively.
Taken in the same sequence, the figures for `CO[C@@H]1CC[C@@](F)(C(=O)NCc2c(Cl)cc(Cl)cc2CO)c2cccnc21` [Example 334, (5S,8R)-N-(2,4-dichloro-6-(hydroxymethyl)benzyl)-5-fluoro-8-methoxy-5,6,7,8-tetrahydroquinoline-5-carboxamide] were less than 1 µM and less than 0.05 µM.
Taken in the same sequence, the figures for `CO[C@H]1CC[C@@](F)(C(=O)NCc2ccc(F)cc2Cl)c2cccnc21` [Example 337, (5S,8S)-N-(2-chloro-4-fluorobenzyl)-5-fluoro-8-methoxy-5,6,7,8-tetrahydroquinoline-5-carboxamide] were less than 1 µM and less than 0.05 µM.
On to `CO[C@H]1CC[C@@](F)(C(=O)NCc2ccc(C(F)(F)F)cc2Cl)c2cccnc21` [Example 338, (5S,8S)-N-(2-chloro-4-(trifluoromethyl)benzyl)-5-fluoro-8-methoxy-5,6,7,8-tetrahydroquinoline-5-carboxamide], for which the concentration for half-maximal inhibition (IC50) in test [1] was less than 1 µM; in test [2] it was less than 0.05 µM.
Taken in the same sequence, the figures for `CO[C@H]1CC[C@@](F)(C(=O)NCc2ccc(F)c(F)c2F)c2cccnc21` [Example 339, (5S,8S)-5-fluoro-8-methoxy-N-(2,3,4-trifluorobenzyl)-5,6,7,8-tetrahydroquinoline-5-carboxamide] were less than 1 µM and less than 0.05 µM.
